In ChEMBL document CHEMBL1909576, “Continued exploration of biphenylsulfonamide scaffold as a platform for aggrecanase-1 inhibition” (Bioorg Med Chem Lett, 2011):
Values after ≈ are worked out from the molar mass of the structure shown.

How the values were obtained:
[1] = target: T1, A disintegrin and metalloproteinase with thrombospondin motifs 4 (Homo sapiens, UniProt O75173); test: Inhibition of aggrecanase-1
T1 sequence (O75173 whole entry): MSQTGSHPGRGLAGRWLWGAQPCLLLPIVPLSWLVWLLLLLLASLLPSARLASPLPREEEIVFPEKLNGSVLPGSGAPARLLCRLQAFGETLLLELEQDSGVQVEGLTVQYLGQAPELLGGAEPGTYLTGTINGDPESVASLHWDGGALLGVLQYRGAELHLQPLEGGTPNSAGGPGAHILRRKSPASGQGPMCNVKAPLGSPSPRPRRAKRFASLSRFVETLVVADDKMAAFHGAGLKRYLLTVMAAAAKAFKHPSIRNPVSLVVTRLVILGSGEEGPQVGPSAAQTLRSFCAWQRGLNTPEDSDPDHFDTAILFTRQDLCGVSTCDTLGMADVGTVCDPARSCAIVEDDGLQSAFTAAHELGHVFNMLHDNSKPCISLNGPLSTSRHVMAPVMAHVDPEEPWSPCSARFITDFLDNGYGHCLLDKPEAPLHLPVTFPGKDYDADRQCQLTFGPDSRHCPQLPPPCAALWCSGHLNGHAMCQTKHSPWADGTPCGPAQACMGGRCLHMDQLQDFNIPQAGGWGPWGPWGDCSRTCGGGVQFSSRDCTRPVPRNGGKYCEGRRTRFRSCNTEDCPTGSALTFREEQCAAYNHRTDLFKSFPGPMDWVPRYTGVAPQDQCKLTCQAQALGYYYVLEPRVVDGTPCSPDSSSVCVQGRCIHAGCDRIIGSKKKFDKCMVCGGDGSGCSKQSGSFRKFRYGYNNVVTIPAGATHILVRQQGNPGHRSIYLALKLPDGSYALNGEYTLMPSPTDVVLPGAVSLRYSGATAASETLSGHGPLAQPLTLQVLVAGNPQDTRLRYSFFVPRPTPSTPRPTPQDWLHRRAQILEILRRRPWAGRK

[2] = Bioavailability in Sprague-Dawley rat; format: ADME, organism-based; settings: in vivo
[3] = Clearance in Sprague-Dawley rat; format: ADME, organism-based; settings: in vivo
[4] = Half life in Sprague-Dawley rat; format: ADME, organism-based; settings: in vivo
[5] = Solubility of the compound at pH 7.4; format: physicochemical; settings: buffer
[6] = target: Collagenase 3 (Homo sapiens, UniProt P45452); test: Inhibition of MMP13
[7] = Permeability across human Caco2 cells; format: ADME, cell-based; settings: Caco-2, read-out: permeability

IC50 [1]	bioavailability [2]	clearance [3]	half-life [4]	solubility [5]	IC50 [6]	Papp [7]	Structure (SMILES)
15000 nM	23%	1.07 mL/min/kg	6 h	> 100 µg/mL	4.6 nM		CC(C)[C@@H](NS(=O)(=O)c1ccc(-c2ccc(OCc3ccccc3C#N)cc2)cc1)C(=O)O
800 nM			7 h	53 µg/mL (≈ 114 µM)	0.1 nM	0.8 ×10⁻⁶ cm/s	CC(C)[C@@H](NS(=O)(=O)c1ccc(-c2ccc(OCc3cccc(C#N)c3)cc2)cc1)C(=O)O
